What was measured:
A-375 = assay: Cytotoxic activity against human A375 cells; type: functional, cell-based
SJSA-1 = assay: Cytotoxic activity against human SJSA1 cells; type: functional, cell-based
[1] = Homo sapiens, SJSA-1, read-out: IC50

| SMILES | IC50 (A-375; a-375) | IC50 (SJSA-1; sjsa-1) | IC50 (A-375; Homo sapiens, A-375, read-out: IC50) [µM] | IC50 (SJSA-1; [1]) [µM] |
| --- | --- | --- | --- | --- |
| COc1ccc(-c2cn(CCC[C@H](NC(=O)OCC3c4ccccc4-c4ccccc43)C(=O)O)nn2)cc1 | Not Active | Not Active | – | – |
| O=C(N[C@@H](CCCn1cc(-c2ccc(I)cc2)nn1)C(=O)O)OCC1c2ccccc2-c2ccccc21 | Not Active | Not Active | – | – |
| CC(C)(C)OC(=O)Nc1ccc(-c2cn(CCC[C@H](NC(=O)OCC3c4ccccc4-c4ccccc43)C(=O)O)nn2)cc1 | Not Active | Not Active | – | – |
| O=C(N[C@@H](CCCn1cc(-c2ccc(C(F)(F)F)cc2)nn1)C(=O)O)OCC1c2ccccc2-c2ccccc21 | – | – | 49.3 | 31.2 |
| Cc1ccc(-c2cn(CCC[C@H](NC(=O)OCC3c4ccccc4-c4ccccc43)C(=O)O)nn2)cc1 | Not Active | – | – | 33.1 |
| O=C(N[C@@H](CCCn1cc(-c2ccc(Br)cc2)nn1)C(=O)O)OCC1c2ccccc2-c2ccccc21 | Not Active | Not Active | – | – |
| O=C(N[C@@H](CCCn1cc(-c2ccc(Cl)cc2)nn1)C(=O)O)OCC1c2ccccc2-c2ccccc21 | Not Active | Not Active | – | – |

From ChEMBL document CHEMBL3627641, “Identification of a new p53/MDM2 inhibitor motif inspired by studies of chlorofusin” (Bioorg Med Chem Lett, 2015)
